The values below come from the NIST ThermoML archive (doi:10.1016/j.fluid.2009.08.017).

± gives the expanded uncertainty stated by the source.

The nature of this data set: activity coefficient (dimensionless); of the first substance listed, at infinite dilution; xn = mol fraction of the nth substance listed. The conditions noted are these: 101 kPa, Liquid, Chromatography, x1 = 0.

In the case of `CCCCCCCC` [octane] + CCCCCCOCn1cc[n+](C)c1.O=S(=O)([N-]S(=O)(=O)C(F)(F)F)C(F)(F)F, the activity coefficient came out at 13.6 ± 0.9 (298.15 K); 12.8 ± 0.9 (308.15 K); 12.1 ± 0.8 (318.15 K); 11.5 ± 0.8 (328.15 K); 10.9 ± 0.7 (338.15 K); 10.4 ± 0.7 (348.15 K). Moreover, the activity coefficient is, setting by setting: (358.15 K) 10 ± 0.7; (368.15 K) 9.51 ± 0.65.

In the case of `c1ccsc1` [thiophene] + CCCCCCOCn1cc[n+](C)c1.O=S(=O)([N-]S(=O)(=O)C(F)(F)F)C(F)(F)F, the activity coefficient (298.15 K) turned out to be 0.743 ± 0.049; the activity coefficient (308.15 K) is 0.744 ± 0.049; the activity coefficient (318.15 K) came out at 0.744 ± 0.049; the activity coefficient (328.15 K) was 0.745 ± 0.049; the activity coefficient (338.15 K) was found to be 0.746 ± 0.049; the activity coefficient (348.15 K) was found to be 0.746 ± 0.049. Besides, the activity coefficient is, setting by setting: (358.15 K) 0.747 ± 0.049; (368.15 K) 0.747 ± 0.049.

For `Cc1ccccc1C` [1,2-dimethylbenzene] + CCCCCCOCn1cc[n+](COCCCCCC)c1.O=S(=O)([N-]S(=O)(=O)C(F)(F)F)C(F)(F)F, the activity coefficient is, setting by setting: (318.15 K) 0.89 ± 0.057; (328.15 K) 0.891 ± 0.057; (338.15 K) 0.892 ± 0.057; (348.15 K) 0.894 ± 0.057; (358.15 K) 0.895 ± 0.057; (368.15 K) 0.896 ± 0.057.

In the case of `CO` [methanol] + CCCCCCOCn1cc[n+](C)c1.O=S(=O)([N-]S(=O)(=O)C(F)(F)F)C(F)(F)F, the activity coefficient by setting is: (298.15 K) 1.36 ± 0.09; (308.15 K) 1.24 ± 0.08; (318.15 K) 1.13 ± 0.07; (328.15 K) 1.04 ± 0.07; (338.15 K) 0.959 ± 0.06; (348.15 K) 0.894 ± 0.057. Besides, the activity coefficient (358.15 K) stood at 0.832 ± 0.054 and the activity coefficient (368.15 K) was determined as 0.775 ± 0.051.

`C1CCCCCCC1` [cyclooctane] + CCCCCCOCn1cc[n+](COCCCCCC)c1.O=S(=O)([N-]S(=O)(=O)C(F)(F)F)C(F)(F)F: the activity coefficient (298.15 K) was determined as 3.2 ± 0.22; the activity coefficient (308.15 K) stood at 3.06 ± 0.21; the activity coefficient (318.15 K) worked out at 2.94 ± 0.2; the activity coefficient (328.15 K) came out at 2.82 ± 0.19; the activity coefficient (338.15 K) came out at 2.72 ± 0.19; the activity coefficient (348.15 K) came to 2.63 ± 0.18. Moreover, the activity coefficient reads like this: (358.15 K) 2.54 ± 0.17; (368.15 K) 2.47 ± 0.17.

With `CCO` [ethanol] + CCCCCCOCn1cc[n+](C)c1.O=S(=O)([N-]S(=O)(=O)C(F)(F)F)C(F)(F)F, the activity coefficient came to 1.59 ± 0.11 (298.15 K); 1.44 ± 0.09 (308.15 K); 1.31 ± 0.09 (318.15 K); 1.2 ± 0.08 (328.15 K); 1.1 ± 0.07 (338.15 K); 1.03 ± 0.06 (348.15 K). Besides, the activity coefficient is 0.952 ± 0.06 (358.15 K) and 0.891 ± 0.057 (368.15 K).

Consider `CCCCC` [pentane] + CCCCCCOCn1cc[n+](C)c1.O=S(=O)([N-]S(=O)(=O)C(F)(F)F)C(F)(F)F, for which the activity coefficient is 7.34 ± 0.5 (298.15 K); 6.93 ± 0.47 (308.15 K); 6.54 ± 0.45 (318.15 K); 6.25 ± 0.43 (328.15 K); 5.92 ± 0.4 (338.15 K); 5.68 ± 0.39 (348.15 K). In addition, the activity coefficient by setting is: (358.15 K) 5.43 ± 0.37; (368.15 K) 5.21 ± 0.36.

Take `CCCCC` [pentane] + CCCCCCOCn1cc[n+](COCCCCCC)c1.O=S(=O)([N-]S(=O)(=O)C(F)(F)F)C(F)(F)F: the activity coefficient runs as follows: (298.15 K) 2.78 ± 0.19; (308.15 K) 2.69 ± 0.18; (318.15 K) 2.62 ± 0.18; (328.15 K) 2.54 ± 0.17; (338.15 K) 2.48 ± 0.17; (348.15 K) 2.43 ± 0.17. The activity coefficient is 2.38 ± 0.16 (358.15 K) and 2.33 ± 0.16 (368.15 K).

With `c1ccsc1` [thiophene] + CCCCCCOCn1cc[n+](COCCCCCC)c1.O=S(=O)([N-]S(=O)(=O)C(F)(F)F)C(F)(F)F, the activity coefficient reads like this: (298.15 K) 0.578 ± 0.041; (308.15 K) 0.575 ± 0.041; (318.15 K) 0.571 ± 0.041; (328.15 K) 0.568 ± 0.041; (338.15 K) 0.565 ± 0.041; (348.15 K) 0.562 ± 0.04. Besides, the activity coefficient came out at 0.559 ± 0.04 (358.15 K) and 0.557 ± 0.04 (368.15 K).

As for `CCOCC` [diethyl ether] + CCCCCCOCn1cc[n+](COCCCCCC)c1.O=S(=O)([N-]S(=O)(=O)C(F)(F)F)C(F)(F)F, the activity coefficient (298.15 K) amounted to 0.811 ± 0.052; the activity coefficient (308.15 K) came out at 0.826 ± 0.053; the activity coefficient (318.15 K) worked out at 0.839 ± 0.054; the activity coefficient (328.15 K) was 0.854 ± 0.055; the activity coefficient (338.15 K) came to 0.867 ± 0.055; the activity coefficient (348.15 K) came to 0.879 ± 0.056. Besides, the activity coefficient amounted to 0.89 ± 0.057 (358.15 K) and 0.904 ± 0.057 (368.15 K).

As to `Cc1ccccc1C` [1,2-dimethylbenzene] + CCCCCCOCn1cc[n+](C)c1.O=S(=O)([N-]S(=O)(=O)C(F)(F)F)C(F)(F)F, the activity coefficient came out at 1.33 ± 0.086 (318.15 K); 1.34 ± 0.087 (328.15 K); 1.35 ± 0.087 (338.15 K); 1.35 ± 0.088 (348.15 K); 1.36 ± 0.088 (358.15 K); 1.36 ± 0.089 (368.15 K).

Regarding `CC(C)=O` [acetone] + CCCCCCOCn1cc[n+](C)c1.O=S(=O)([N-]S(=O)(=O)C(F)(F)F)C(F)(F)F, the activity coefficient worked out at 0.3 ± 0.031 (298.15 K); 0.308 ± 0.031 (308.15 K); 0.315 ± 0.031 (318.15 K); 0.322 ± 0.031 (328.15 K); 0.328 ± 0.032 (338.15 K); 0.336 ± 0.032 (348.15 K). In addition, the activity coefficient is, setting by setting: (358.15 K) 0.342 ± 0.032; (368.15 K) 0.348 ± 0.032.

Regarding `Cc1ccccc1` [toluene] + CCCCCCOCn1cc[n+](C)c1.O=S(=O)([N-]S(=O)(=O)C(F)(F)F)C(F)(F)F, the activity coefficient worked out at 1.05 ± 0.066 (298.15 K); 1.06 ± 0.067 (308.15 K); 1.07 ± 0.068 (318.15 K); 1.08 ± 0.068 (328.15 K); 1.09 ± 0.069 (338.15 K); 1.1 ± 0.069 (348.15 K). Besides, the activity coefficient runs as follows: (358.15 K) 1.1 ± 0.07; (368.15 K) 1.11 ± 0.07.

Take `CCc1ccccc1` [ethylbenzene] + CCCCCCOCn1cc[n+](COCCCCCC)c1.O=S(=O)([N-]S(=O)(=O)C(F)(F)F)C(F)(F)F: the activity coefficient (298.15 K) was found to be 0.967 ± 0.061; the activity coefficient (308.15 K) came out at 0.966 ± 0.061; the activity coefficient (318.15 K) worked out at 0.965 ± 0.061; the activity coefficient (328.15 K) came out at 0.964 ± 0.061; the activity coefficient (338.15 K) was determined as 0.963 ± 0.061; the activity coefficient (348.15 K) stood at 0.963 ± 0.061. Moreover, under “358.15 K”, the activity coefficient is 0.962 ± 0.06.

With `C#CCCCCC` [1-heptyne] + CCCCCCOCn1cc[n+](COCCCCCC)c1.O=S(=O)([N-]S(=O)(=O)C(F)(F)F)C(F)(F)F, the activity coefficient came out at 1.37 ± 0.089 (298.15 K); 1.38 ± 0.09 (308.15 K); 1.39 ± 0.09 (318.15 K); 1.39 ± 0.091 (328.15 K); 1.4 ± 0.091 (338.15 K); 1.4 ± 0.092 (348.15 K). Besides, the activity coefficient was 1.41 ± 0.092 (358.15 K) and 1.42 ± 0.093 (368.15 K).

On to `C1CCCCCCC1` [cyclooctane] + CCCCCCOCn1cc[n+](C)c1.O=S(=O)([N-]S(=O)(=O)C(F)(F)F)C(F)(F)F, for which the activity coefficient was 8.12 ± 0.55 (298.15 K); 7.57 ± 0.52 (308.15 K); 7.11 ± 0.48 (318.15 K); 6.74 ± 0.46 (328.15 K); 6.35 ± 0.43 (338.15 K); 6.06 ± 0.41 (348.15 K). In addition, the activity coefficient (358.15 K) was 5.75 ± 0.39 and the activity coefficient (368.15 K) came to 5.48 ± 0.37.

For `Cc1ccccc1` [toluene] + CCCCCCOCn1cc[n+](COCCCCCC)c1.O=S(=O)([N-]S(=O)(=O)C(F)(F)F)C(F)(F)F, the activity coefficient is 0.743 ± 0.049 (308.15 K); 0.746 ± 0.049 (318.15 K); 0.749 ± 0.049 (328.15 K); 0.753 ± 0.05 (338.15 K); 0.756 ± 0.05 (348.15 K); 0.758 ± 0.05 (358.15 K). For the same compound, the activity coefficient (368.15 K) came to 0.761 ± 0.05.

As for `O` [water] + CCCCCCOCn1cc[n+](COCCCCCC)c1.O=S(=O)([N-]S(=O)(=O)C(F)(F)F)C(F)(F)F, the activity coefficient came to 4.43 ± 0.3 (298.15 K); 3.8 ± 0.26 (308.15 K); 3.31 ± 0.23 (318.15 K); 2.93 ± 0.2 (328.15 K); 2.53 ± 0.17 (338.15 K); 2.24 ± 0.15 (348.15 K). Further, the activity coefficient runs as follows: (358.15 K) 2.02 ± 0.14; (368.15 K) 1.83 ± 0.12.

As to `CCCOCCC` [dipropyl ether] + CCCCCCOCn1cc[n+](COCCCCCC)c1.O=S(=O)([N-]S(=O)(=O)C(F)(F)F)C(F)(F)F, the activity coefficient (298.15 K) was determined as 1.49 ± 0.098; the activity coefficient (308.15 K) was 1.49 ± 0.098; the activity coefficient (318.15 K) turned out to be 1.49 ± 0.098; the activity coefficient (328.15 K) was 1.5 ± 0.098; the activity coefficient (338.15 K) is 1.5 ± 0.099; the activity coefficient (348.15 K) was found to be 1.5 ± 0.099. In addition, the activity coefficient stood at 1.5 ± 0.099 (358.15 K) and 1.5 ± 0.099 (368.15 K).

In the case of `C=CCCCCCC` [oct-1-ene] + CCCCCCOCn1cc[n+](C)c1.O=S(=O)([N-]S(=O)(=O)C(F)(F)F)C(F)(F)F, the activity coefficient worked out at 7.97 ± 0.54 (298.15 K); 7.67 ± 0.52 (308.15 K); 7.39 ± 0.5 (318.15 K); 7.12 ± 0.49 (328.15 K); 6.89 ± 0.47 (338.15 K); 6.69 ± 0.46 (348.15 K). Further, the activity coefficient by setting is: (358.15 K) 6.5 ± 0.44; (368.15 K) 6.34 ± 0.43.

On to `CCCCO` [butan-1-ol] + CCCCCCOCn1cc[n+](C)c1.O=S(=O)([N-]S(=O)(=O)C(F)(F)F)C(F)(F)F, for which the activity coefficient worked out at 1.74 ± 0.12 (318.15 K); 1.58 ± 0.1 (328.15 K); 1.45 ± 0.1 (338.15 K); 1.34 ± 0.09 (348.15 K); 1.24 ± 0.08 (358.15 K); 1.15 ± 0.07 (368.15 K).
